According to PubChem BioAssay (NCI):
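Dose response: 5 concentrations. Exposure: 48 h. Format: 96-well plates. Endpoint: linear interpolation; highest concentration if not reached. At the TGI there is no net growth.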

Experiments:
Assay in all cases: DTP human tumour cell line panel, 48 h
IGROV1 ovarian = system: IGROV1 ovarian
SK-MEL-2 melanoma = system: SK-MEL-2 melanoma
HCT-116 colon = system: HCT-116 colon
CAKI-1 renal = system: CAKI-1 renal
OVCAR-3 ovarian = system: OVCAR-3 ovarian
TK-10 renal = system: TK-10 renal
KM12 colon = system: KM12 colon
NCI-H226 lung = system: NCI-H226 lung
SK-MEL-5 melanoma = system: SK-MEL-5 melanoma
MDA-N = system: MDA-N
M14 melanoma = system: M14 melanoma
EKVX NSCLC = system: EKVX NSCLC
SK-OV-3 ovarian = system: SK-OV-3 ovarian
SF-295 CNS = system: SF-295 CNS
COLO 205 colon = system: COLO 205 colon
UACC-257 melanoma = system: UACC-257 melanoma

Structure (SMILES)	TGI (IGROV1 ovarian) [µM]	TGI (SK-MEL-2 melanoma) [µM]	TGI (HCT-116 colon) [µM]	TGI (CAKI-1 renal) [µM]	TGI (OVCAR-3 ovarian) [µM]	TGI (TK-10 renal) [µM]	TGI (KM12 colon) [µM]	TGI (NCI-H226 lung) [µM]	TGI (SK-MEL-5 melanoma) [µM]	TGI (MDA-N) [µM]	TGI (M14 melanoma) [µM]	TGI (EKVX NSCLC) [µM]	TGI (SK-OV-3 ovarian) [µM]	TGI (SF-295 CNS) [µM]	TGI (COLO 205 colon) [µM]	TGI (UACC-257 melanoma) [µM]
COc1ccc(/C(=N/Nc2nc3ccccc3n2Cc2ccccc2)C(=O)O)cc1	40.7	> 100	> 100	45.8	> 100	> 100	> 100	63	37.6	> 100	38.9	> 100	55	> 100	> 100	> 100
NN/C(=N\S(=O)(=O)c1cc(S(=O)(=O)c2ccccc2)cs1)Nc1ccc(Cl)cc1	> 100	38.2	74.6	> 100	54.2	81.7	89.6	> 100	32.3	59.2	48.1	55.7	> 100	75.5	43.4	47.5
C[C@H]1[C@H]2[C@H](C[C@@]3(C)C4=CC[C@H]5C(C)(C)[C@@H](OC6OCC(O)C(O)C6O)CC[C@@]56C[C@@]46CC[C@]23C)O[C@@]2(O)[C@@H]1OC(C)(C)[C@H]2O (some centres not stated)	1.85	11.5	4.21	5.57	9.61	3.95	4.12	6.73	4.71	7.48	10.7	2.61	4.55	6.47	16.1	4.7
C[Si](C)(C)CCOCN(C(=O)C1=CCC2(CC1)OCCO2)c1ccccc1I	42.9	32.6	44.8	55.7	38.9	63.5	38.3	53.8	> 100	59.1	39.5	29.1	33.4	32	> 100	54.3
Cc1c(CN2CCOCC2)c(CN2CCOCC2)c(C)n1-c1ccc(Cl)cn1	> 100	> 100	> 100	> 100	> 100	> 100	> 100	> 100	> 100	> 100	> 100	> 100	> 100	> 100	> 100	> 100
COC1=CC(=O)C2=C(C1=O)[C@H]1CC[C@]3(C)C(=O)CC[C@H]3[C@@H]1CC2	44.5	36.3	34.1	77	52.3	> 100	> 100	49.7	33.2	65.1	> 100	30.4	> 100	> 100	> 100	58.7
CCc1n[nH]c(=O)n1-n1c(C)ccc1C	> 100	> 100	> 100	> 100	> 100	> 100	> 100	> 100	> 100	> 100	> 100	> 100	> 100	> 100	> 100	> 100
CN(C)/C=N/c1cc(=O)n(C)c(=O)n1C	> 100	> 100	> 100	> 100	> 100	> 100	> 100	> 100	> 100	> 100	> 100	> 100	> 100	> 100	> 100	> 100
CC(=O)n1nc(-c2[nH]c(C)c(-c3nn(C(C)=O)c(=S)o3)c2C)oc1=S	> 100	> 100	> 100	> 100	> 100	> 100	> 100	> 100	> 100	> 100	> 100	> 100	> 100	> 100	> 100	> 100
O=C(O[C@H](/C=C/c1ccccc1)P1(=O)N(Cc2ccccc2)[C@H]2CCCC[C@@H]2N1Cc1ccccc1)c1ccccc1	18.6	6.19	17	5.93	> 100	> 100	18.1	7.85	4.1	> 100	> 100	> 100	> 100	> 100	3.27	> 100
CC(=O)Nc1ccc2cc(C#N)c(=O)[nH]c2n1	> 100	> 100	> 100	> 100	> 100	> 100	> 100	> 100	> 100	> 100	> 100	> 100	> 100	> 100	> 100	> 100
CN1CCOC1(C)c1ccccc1 (configuration not stated)	> 100	> 100	> 100	> 100	> 100	> 100	> 100	> 100	> 100	> 100	> 100	> 100	> 100	> 100	> 100	> 100
CC(=O)OC[C@@]1(C)[C@@H]2[C@@H]3[C@@]4(CO[C@]3(C)C(=O)[C@@]3(OC(C)=O)C[C@H](C)[C@H](OC(C)=O)[C@@H]3[C@H]4OC(C)=O)[C@H](OC(=O)c3ccccc3)C[C@@H]21	> 100	> 100	> 100	> 100	> 100	> 100	> 100	> 100	> 100	> 100	> 100	> 100	> 100	> 100	> 100	> 100
O=C(CNc1ccc([N+](=O)[O-])cc1)Nn1c(-c2ccccc2)nc2ccccc2c1=O	12.9	8.37	13	5.15	20.4	17	15.9	25.2	2.61	13.8	8.59	28.6	14.9	29.8	5.31	36.7
COC(=O)CSc1cc(Cl)c(C)cc1S(=O)(=O)Nc1n[nH]c(N)n1	> 10	> 10	> 10	> 10	> 10	> 10	> 10	> 10	> 10	> 10	> 10	> 10	> 10	> 10	> 10	> 10
COC1(OC)CCCCCCCCC(OC)(OC)CCCCCCCC1	> 100	> 100	> 100	> 100	> 100	> 100	> 100	> 100	> 100	> 100	> 100	> 100	> 100	> 100	> 100	> 100
COc1ccc(/C=N/NS(=O)(=O)c2ccc(/C=C3\NC(=O)NC3=O)cc2)cc1	> 100	> 100	> 100	> 100	> 100	> 100	> 100	> 100	> 100	> 100	> 100	> 100	> 100	> 100	> 100	> 100
COc1ccc(NCc2cccc3c(=O)c4ccc(Cl)cc4oc23)cc1	> 100	> 100	> 100	> 100	> 100	> 100	> 100	> 100	> 100	> 100	> 100	> 100	> 100	> 100	> 100	> 100
O=c1c2c3c(sc2nc2n1sc1nc4sc5c(c4c(=O)n12)CCCC5)CCCC3	> 100	> 100	> 100	36.4	> 62.5	> 100	> 100	98.1	> 100	97.4	> 100	27.8	> 100	> 100	64.7	> 100
O=[N+]([O-])c1ccccc1S(=O)(=O)c1cccc2c1NCCC2	> 100	> 100	> 100	> 100	> 100	> 100	> 100	> 100	52.3	> 100	> 100	> 100	> 100	> 100	> 100	63.2
O=c1c2ccccc2nc(-c2ccccc2)n1/N=C/c1ccccc1[N+](=O)[O-]	> 100	> 100	> 100	> 100	> 100	> 59.6	> 100	> 100	> 100	> 100	> 100	> 100	> 100	> 83.3	> 100	> 100
C#CCNCC(=O)O	> 100	> 100	> 100	> 100	> 100	> 100	> 100	> 100	> 100	> 100	> 100	> 100	> 100	> 100	> 100	> 100
